Experimental data from publication doi:10.1101/2023.11.24.568596v1 (biorxiv, 2023).
Blank lines part the entries; values can stand above or below the compound they belong to.

How the values were obtained:
Conditions in all cases: binder
[1] = target: CK1d (Homo sapiens, UniProt P48730)
[2] = target: CLK3 (Homo sapiens, UniProt P49761)
[3] = target: T1, EphB1 (Homo sapiens, UniProt P54762)
T1 sequence (P54762 1-984): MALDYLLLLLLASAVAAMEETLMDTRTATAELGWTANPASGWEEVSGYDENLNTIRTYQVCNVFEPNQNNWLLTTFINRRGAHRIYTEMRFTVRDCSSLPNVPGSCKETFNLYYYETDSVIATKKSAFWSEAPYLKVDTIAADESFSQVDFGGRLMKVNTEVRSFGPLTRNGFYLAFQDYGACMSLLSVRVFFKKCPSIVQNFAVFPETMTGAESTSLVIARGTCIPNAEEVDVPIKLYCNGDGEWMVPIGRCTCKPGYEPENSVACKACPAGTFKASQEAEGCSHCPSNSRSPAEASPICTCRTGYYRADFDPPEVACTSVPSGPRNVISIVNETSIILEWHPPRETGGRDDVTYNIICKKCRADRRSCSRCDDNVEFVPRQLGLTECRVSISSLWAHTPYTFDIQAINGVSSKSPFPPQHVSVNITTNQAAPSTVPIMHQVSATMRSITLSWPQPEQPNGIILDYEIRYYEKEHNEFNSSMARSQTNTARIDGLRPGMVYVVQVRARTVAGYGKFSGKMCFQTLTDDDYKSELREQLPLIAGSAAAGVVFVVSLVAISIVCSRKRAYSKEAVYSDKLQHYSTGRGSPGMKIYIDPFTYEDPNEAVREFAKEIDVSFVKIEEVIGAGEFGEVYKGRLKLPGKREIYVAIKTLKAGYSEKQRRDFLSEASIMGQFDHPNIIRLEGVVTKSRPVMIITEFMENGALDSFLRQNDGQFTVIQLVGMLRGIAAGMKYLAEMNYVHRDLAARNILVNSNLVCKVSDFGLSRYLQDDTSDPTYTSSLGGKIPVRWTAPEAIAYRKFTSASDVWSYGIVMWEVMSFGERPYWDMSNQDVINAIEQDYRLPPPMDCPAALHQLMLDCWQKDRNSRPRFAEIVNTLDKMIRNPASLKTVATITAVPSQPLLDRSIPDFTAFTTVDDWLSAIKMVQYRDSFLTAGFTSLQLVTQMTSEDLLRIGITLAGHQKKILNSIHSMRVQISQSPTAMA

[4] = target: T2, EphB3 (Homo sapiens, UniProt P54753)
T2 sequence (P54753 1-998): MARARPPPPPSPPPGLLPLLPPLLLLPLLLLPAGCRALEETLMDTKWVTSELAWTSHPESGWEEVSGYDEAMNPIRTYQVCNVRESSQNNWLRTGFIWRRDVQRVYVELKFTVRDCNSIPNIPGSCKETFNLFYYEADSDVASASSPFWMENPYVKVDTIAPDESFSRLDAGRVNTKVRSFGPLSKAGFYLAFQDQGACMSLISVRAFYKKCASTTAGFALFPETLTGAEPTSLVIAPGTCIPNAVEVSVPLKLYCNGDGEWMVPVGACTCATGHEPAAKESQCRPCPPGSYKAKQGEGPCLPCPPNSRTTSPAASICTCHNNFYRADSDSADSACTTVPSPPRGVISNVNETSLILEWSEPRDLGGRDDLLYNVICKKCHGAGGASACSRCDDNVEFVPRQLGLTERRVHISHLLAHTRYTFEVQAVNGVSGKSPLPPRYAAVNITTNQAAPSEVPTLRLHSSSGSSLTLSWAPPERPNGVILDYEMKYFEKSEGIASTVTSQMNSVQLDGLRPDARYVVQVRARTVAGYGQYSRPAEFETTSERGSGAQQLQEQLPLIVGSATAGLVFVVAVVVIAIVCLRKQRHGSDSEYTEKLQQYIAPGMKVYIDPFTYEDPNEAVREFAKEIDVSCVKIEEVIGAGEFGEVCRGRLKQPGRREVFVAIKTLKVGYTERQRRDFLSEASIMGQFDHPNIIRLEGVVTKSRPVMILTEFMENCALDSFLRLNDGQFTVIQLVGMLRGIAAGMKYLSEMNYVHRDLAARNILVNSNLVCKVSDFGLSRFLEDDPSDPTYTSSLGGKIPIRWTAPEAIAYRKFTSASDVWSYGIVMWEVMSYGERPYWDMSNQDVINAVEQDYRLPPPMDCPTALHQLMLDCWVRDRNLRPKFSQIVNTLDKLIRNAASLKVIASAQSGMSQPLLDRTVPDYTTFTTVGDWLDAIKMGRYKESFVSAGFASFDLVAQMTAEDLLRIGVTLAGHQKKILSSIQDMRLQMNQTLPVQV

[5] = target: FGFR2 (Homo sapiens, UniProt P21802)
FGFR2, sequence (P21802 whole entry): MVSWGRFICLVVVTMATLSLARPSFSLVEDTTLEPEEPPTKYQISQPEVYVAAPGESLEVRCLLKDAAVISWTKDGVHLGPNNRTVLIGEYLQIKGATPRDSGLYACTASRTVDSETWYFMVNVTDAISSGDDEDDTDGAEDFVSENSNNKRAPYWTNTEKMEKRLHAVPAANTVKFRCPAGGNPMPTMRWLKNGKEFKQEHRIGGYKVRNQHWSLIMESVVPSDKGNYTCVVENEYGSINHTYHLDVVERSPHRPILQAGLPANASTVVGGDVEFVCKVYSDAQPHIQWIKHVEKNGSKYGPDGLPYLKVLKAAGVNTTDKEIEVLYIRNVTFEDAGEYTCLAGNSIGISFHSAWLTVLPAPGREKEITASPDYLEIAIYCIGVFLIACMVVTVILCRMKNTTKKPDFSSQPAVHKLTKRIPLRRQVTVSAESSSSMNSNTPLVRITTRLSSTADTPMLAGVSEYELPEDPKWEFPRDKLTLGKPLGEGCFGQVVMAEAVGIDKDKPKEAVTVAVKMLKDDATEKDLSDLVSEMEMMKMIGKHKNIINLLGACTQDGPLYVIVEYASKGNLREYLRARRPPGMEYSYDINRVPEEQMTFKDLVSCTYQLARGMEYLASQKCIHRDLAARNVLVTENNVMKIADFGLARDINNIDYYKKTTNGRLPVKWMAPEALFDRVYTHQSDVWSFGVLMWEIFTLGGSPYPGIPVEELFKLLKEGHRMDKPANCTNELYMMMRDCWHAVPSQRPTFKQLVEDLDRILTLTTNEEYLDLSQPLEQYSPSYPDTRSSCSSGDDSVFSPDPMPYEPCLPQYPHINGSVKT

[6] = target: OSR1 (Homo sapiens, UniProt O95747)
OSR1, sequence (O95747 whole entry): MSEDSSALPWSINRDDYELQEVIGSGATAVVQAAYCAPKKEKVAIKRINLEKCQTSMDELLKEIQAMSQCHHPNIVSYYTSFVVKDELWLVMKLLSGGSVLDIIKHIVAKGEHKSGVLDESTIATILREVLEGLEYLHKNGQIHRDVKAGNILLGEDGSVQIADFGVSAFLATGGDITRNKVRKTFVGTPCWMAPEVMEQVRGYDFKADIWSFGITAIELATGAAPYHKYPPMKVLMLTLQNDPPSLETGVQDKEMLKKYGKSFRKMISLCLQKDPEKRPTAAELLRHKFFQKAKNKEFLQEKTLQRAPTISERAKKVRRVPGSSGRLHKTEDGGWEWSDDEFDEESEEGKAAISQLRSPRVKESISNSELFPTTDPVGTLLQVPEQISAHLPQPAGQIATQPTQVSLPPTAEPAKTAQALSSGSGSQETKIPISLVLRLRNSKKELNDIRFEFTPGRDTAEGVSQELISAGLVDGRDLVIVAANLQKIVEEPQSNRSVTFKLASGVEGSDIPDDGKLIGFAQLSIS

[7] = target: PIM1 (Homo sapiens, UniProt P11309)
PIM1, sequence (P11309 whole entry): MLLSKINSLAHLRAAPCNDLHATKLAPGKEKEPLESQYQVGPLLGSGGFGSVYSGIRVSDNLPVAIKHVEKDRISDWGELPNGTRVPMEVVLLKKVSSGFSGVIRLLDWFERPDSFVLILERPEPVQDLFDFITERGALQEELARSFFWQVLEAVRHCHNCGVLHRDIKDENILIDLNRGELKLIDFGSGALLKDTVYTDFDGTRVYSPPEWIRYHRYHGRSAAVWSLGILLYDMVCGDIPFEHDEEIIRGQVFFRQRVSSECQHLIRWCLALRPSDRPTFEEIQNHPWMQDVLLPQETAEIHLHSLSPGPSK

[8] = target: T3, VRK1 (Homo sapiens, UniProt Q99986)
T3 sequence (Q99986 1-396): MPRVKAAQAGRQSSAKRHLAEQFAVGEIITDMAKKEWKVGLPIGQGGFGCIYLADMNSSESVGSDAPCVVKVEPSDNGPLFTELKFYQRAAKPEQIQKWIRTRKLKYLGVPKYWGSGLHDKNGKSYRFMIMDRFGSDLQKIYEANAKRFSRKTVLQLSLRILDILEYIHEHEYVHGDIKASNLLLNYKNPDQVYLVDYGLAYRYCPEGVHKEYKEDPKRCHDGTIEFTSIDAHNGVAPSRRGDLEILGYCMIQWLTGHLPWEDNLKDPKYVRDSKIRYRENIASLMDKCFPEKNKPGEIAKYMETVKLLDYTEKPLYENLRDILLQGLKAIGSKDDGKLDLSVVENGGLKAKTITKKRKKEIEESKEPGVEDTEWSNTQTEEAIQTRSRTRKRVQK

[9] = target: p38a (Homo sapiens, UniProt Q16539)
p38a, sequence (Q16539 whole entry): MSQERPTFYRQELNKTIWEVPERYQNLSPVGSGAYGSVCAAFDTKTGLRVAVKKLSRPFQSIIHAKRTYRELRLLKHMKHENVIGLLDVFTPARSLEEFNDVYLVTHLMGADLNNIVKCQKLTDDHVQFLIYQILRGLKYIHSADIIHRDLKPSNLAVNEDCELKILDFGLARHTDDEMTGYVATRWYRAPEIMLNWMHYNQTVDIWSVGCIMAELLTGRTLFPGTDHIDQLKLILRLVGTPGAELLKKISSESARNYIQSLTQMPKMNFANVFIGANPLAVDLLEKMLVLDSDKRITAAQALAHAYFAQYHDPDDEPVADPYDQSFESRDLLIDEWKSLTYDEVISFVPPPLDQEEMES

CLK3, sequence (P49761 whole entry): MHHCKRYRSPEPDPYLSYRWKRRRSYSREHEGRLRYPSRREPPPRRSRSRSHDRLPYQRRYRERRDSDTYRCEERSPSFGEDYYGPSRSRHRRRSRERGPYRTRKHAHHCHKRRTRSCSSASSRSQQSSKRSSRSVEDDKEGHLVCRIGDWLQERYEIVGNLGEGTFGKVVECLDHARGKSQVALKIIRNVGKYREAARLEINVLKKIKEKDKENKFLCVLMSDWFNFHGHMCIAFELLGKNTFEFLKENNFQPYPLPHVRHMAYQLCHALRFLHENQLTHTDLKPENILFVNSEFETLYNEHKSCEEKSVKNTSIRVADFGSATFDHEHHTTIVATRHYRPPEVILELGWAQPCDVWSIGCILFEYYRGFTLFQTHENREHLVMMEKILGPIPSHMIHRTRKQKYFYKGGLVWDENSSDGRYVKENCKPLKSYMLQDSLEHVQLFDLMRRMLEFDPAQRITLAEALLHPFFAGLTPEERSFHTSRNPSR
CK1d, sequence (P48730 whole entry): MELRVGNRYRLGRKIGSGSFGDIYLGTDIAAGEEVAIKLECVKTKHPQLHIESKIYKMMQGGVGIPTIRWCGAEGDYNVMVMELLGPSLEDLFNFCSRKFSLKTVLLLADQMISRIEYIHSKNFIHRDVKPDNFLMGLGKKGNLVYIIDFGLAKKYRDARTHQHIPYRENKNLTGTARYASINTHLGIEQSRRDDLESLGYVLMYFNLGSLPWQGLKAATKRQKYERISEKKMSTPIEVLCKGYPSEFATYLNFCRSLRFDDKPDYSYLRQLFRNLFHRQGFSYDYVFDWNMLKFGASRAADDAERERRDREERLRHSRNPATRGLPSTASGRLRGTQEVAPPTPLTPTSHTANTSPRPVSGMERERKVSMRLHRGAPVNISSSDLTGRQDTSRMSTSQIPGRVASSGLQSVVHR

dTm 33 [1]: 2.2 °C
dTm 33 [2]: -0.5 °C
dTm 33 [3]: 6.5 °C
dTm 33 [4]: 8.7 °C
dTm 33 [5]: 3.3 °C
dTm 33 [6]: 2.4 °C
dTm 33 [7]: 3.3 °C
dTm 33 [8]: 0.4 °C
dTm 33 [9]: 4.7 °C
SMILES: Cc1cccc(-c2ccc(-c3cc4cnc(Nc5ccc(F)c(CO)c5)nc4n(CCCCN)c3=O)c(Cl)c2)n1 [compound 33, 8-(4-Aminobutyl)-6-(2-chloro-4-(6-methylpyridin-2-yl)phenyl)-2-((4-fluoro-3-(hydroxymethyl)phenyl)amino)pyrido[2,3-d]pyrimidin-7(8H)-one]

dTm 35 [1]: 1.8 °C
dTm 35 [2]: -1.3 °C
dTm 35 [3]: 6.0 °C
dTm 35 [4]: 4.5 °C
dTm 35 [5]: 2.4 °C
dTm 35 [6]: 2.6 °C
dTm 35 [7]: -0.9 °C
dTm 35 [8]: -0.2 °C
dTm 35 [9]: 3.8 °C
SMILES: COc1cc(N2CCOCC2)ccc1Nc1ncc2cc(-c3ccc(-c4cccc(C)n4)cc3Cl)c(=O)n(CCCCN)c2n1 [compound 35, 8-(4-Aminobutyl)-6-(2-chloro-4-(6-methylpyridin-2-yl)phenyl)-2-((2-methoxy-4-morpholino-phenyl)amino)pyrido[2,3-d]pyrimidin-7(8H)-one]

dTm 36 [1]: 1.1 °C
dTm 36 [2]: -0.7 °C
dTm 36 [3]: 5.5 °C
dTm 36 [4]: 3.3 °C
dTm 36 [5]: 2.9 °C
dTm 36 [6]: 3.4 °C
dTm 36 [7]: -0.1 °C
dTm 36 [8]: 0.1 °C
dTm 36 [9]: 3.7 °C
SMILES: COc1cc(N2CCN(C)CC2)ccc1Nc1ncc2cc(-c3ccc(-c4cccc(C)n4)cc3Cl)c(=O)n(CCCCN)c2n1 [compound 36, 8-(4-Aminobutyl)-6-(2-chloro-4-(6-methylpyridin-2-yl)phenyl)-2-((2-methoxy-4-(4-methylpiperazin-1-yl)phenyl)amino)pyrido[2,3-d]pyrimidin-7(8H)-one]

dTm 34 [1]: 1.3 °C
dTm 34 [2]: -1.0 °C
dTm 34 [3]: 5.2 °C
dTm 34 [4]: 4.1 °C
dTm 34 [5]: 2.0 °C
dTm 34 [6]: 0.4 °C
dTm 34 [7]: 2.7 °C
dTm 34 [8]: 0.0 °C
dTm 34 [9]: 3.0 °C
SMILES: COc1ccc(O)c(Nc2ncc3cc(-c4ccc(-c5cccc(C)n5)cc4Cl)c(=O)n(CCCCN)c3n2)c1 [compound 34, 8-(4-Aminobutyl)-6-(2-chloro-4-(6-methylpyridin-2-yl)phenyl)-2-((2-hydroxy-5-methoxy-phenyl)amino)pyrido[2,3-d]pyrimidin-7(8H)-one]
